This experiment deals with CDK2 (human) (UniProt P24941). Briefly: Enzyme Assay.
Broadly, the Ki is the dissociation constant of the complex between target and ligand, obtained from inhibition or displacement. Lower therefore signals a stronger hold on the target. In the case of `Cc1c(-c2ccnc(Nc3ccccc3C(F)(F)F)n2)sc(=O)n1C`, the Ki is over 10000 nM.

Regarding `CCc1ccc(Nc2nccc(-c3sc(=O)n(C)c3C)n2)cc1`, the Ki came out at 50 nM.

Take `CC(=O)c1cccc(Nc2nccc(-c3sc(=O)n(C)c3C)n2)c1`: the Ki came out at 20 nM. Compared with the last compound, the Ki is about 2.5-fold lower.

Compound `Cc1c(-c2ccnc(Nc3cccc(NS(C)(=O)=O)c3)n2)sc(=O)n1C` had a Ki of 30 nM. Compared with the last compound, the Ki is about 1.5-fold higher.

On to `Cc1ccccc1Nc1nccc(-c2sc(=O)n(C)c2C)n1`, for which the Ki came out at 460 nM.

Compound `Cc1c(-c2ccnc(Nc3ccccc3OC(F)F)n2)sc(=O)n1C` gave a Ki of 5360 nM. This Ki lies about 12-fold higher than the previous one.

Compound `Cc1ccc(Nc2nccc(-c3sc(=O)n(C)c3C)n2)cc1` registered a Ki of 40 nM. Compared with the last compound, the Ki is about 130-fold lower.

`CCOc1ccccc1Nc1nccc(-c2sc(=O)n(C)c2C)n1` yielded a Ki of over 10000 nM.

On to `COc1ccccc1Nc1nccc(-c2sc(=O)n(C)c2C)n1`, for which the Ki came to 2470 nM.

As for `COc1ccc(Nc2nccc(-c3sc(=O)n(C)c3C)n2)c(OC)c1`, the Ki was over 10000 nM.

Compound `Cc1cc(F)ccc1Nc1nccc(-c2sc(=O)n(C)c2C)n1` displayed a Ki of 490 nM.

As for `CCc1ccccc1Nc1nccc(-c2sc(=O)n(C)c2C)n1`, the inhibitory constant (Ki) was found to be 1230 nM. Compared with the last compound, the Ki is about 2.5-fold higher.

Turning to `COc1ccc(Nc2nccc(-c3sc(=O)n(C)c3C)n2)cc1`, the inhibition constant (Ki) was 700 nM. This Ki lies about 1.8-fold lower than the previous one.

With `Cc1cccc(Nc2nccc(-c3sc(=O)n(C)c3C)n2)c1`, the Ki was found to be 20 nM.

`Cc1c(-c2ccnc(Nc3ccccc3)n2)sc(=O)n1C` yielded a Ki of 40 nM.

`Cc1c(Nc2nccc(-c3sc(=O)n(C)c3C)n2)cccc1NS(C)(=O)=O` came in with a Ki of 190 nM. Against the preceding compound, the Ki is about 4.8-fold higher.

In the case of `COc1cccc(Nc2nccc(-c3sc(=O)n(C)c3C)n2)c1`, the Ki was 70 nM.

Take `COc1cc(Cl)ccc1Nc1nccc(-c2sc(=O)n(C)c2C)n1`: the Ki was determined as 2230 nM.

These data come from the Kinase Knowledgebase extract (Sharma et al. 2016).
